One compound from patent US5856356A, “Use of strontium salts and pharmaceutical compositions thereof for the treatment of arthrosis” (Adir et Compagnie, priority 1996, dated 1999) can be followed below.

The test system of this experiment is human chondrocytes.

Regarding `[Cl-].[Cl-].[Sr+2]` [SrCl2, strontium chloride], the “production of sulfated glycoseaminoglycans” value (24 hours, concentration printed "210^-3 M", control 43 871 ± 1124, p < 0.05) was 52 839 c.p.m./10^6 cells. Further, for the setting “human chondrocytes, same effects as compound A”, the “effect on the synthesis of proteoglycans / stimulation of the chondroformation (in words)” value is given as “exhibits the same effects”.
